The supplement of paper PMC13380429

Tests used:
Conditions in all cases: 72 h
Caco-2 [1] = test: drug sensitivity score (DSS) for viability; higher = more toxic; extreme values may be limits of the assay
Calu-3 [2] = test: as above
HepG2 [3] = test: as above
Caco-2 [4] = test: relative viability EC50 (midpoint between 100% and the lowest measured viability); higher = less toxic
Calu-3 [5] = test: as above
HepG2 [6] = test: as above
Caco-2 [7] = test: cell viability relative to DMSO; higher = less toxic
Calu-3 [8] = test: as above
HepG2 [9] = test: as above
U2OS [10] = test: drug sensitivity score (DSS) for viability; higher = more toxic; extreme values may be limits of the assay
Vero E6 [11] = test: as above
U2OS [12] = test: relative viability EC50 (midpoint between 100% and the lowest measured viability); higher = less toxic
U2OS [13] = test: cell viability relative to DMSO; higher = less toxic
Vero E6 [14] = test: as above
Vero E6 [15] = test: relative viability EC50 (midpoint between 100% and the lowest measured viability); higher = less toxic

SMILES	drug sensitivity score (Caco-2 [1])	drug sensitivity score (Calu-3 [2])	drug sensitivity score (HepG2 [3])	relative viability EC50 (Caco-2 [4])	relative viability EC50 (Calu-3 [5])	relative viability EC50 (HepG2 [6])	cell viability (Caco-2 [7]; 1 nM)	cell viability (Caco-2 [7]; 10 nM)	cell viability (Caco-2 [7]; 100 nM)	cell viability (Caco-2 [7]; 1000 nM)	cell viability (Caco-2 [7]; 10000 nM)	cell viability (Calu-3 [8]; 1 nM)	cell viability (Calu-3 [8]; 10 nM)	cell viability (Calu-3 [8]; 100 nM)	cell viability (Calu-3 [8]; 1000 nM)	cell viability (Calu-3 [8]; 10000 nM)	cell viability (HepG2 [9]; 1 nM)	cell viability (HepG2 [9]; 10 nM)	cell viability (HepG2 [9]; 100 nM)	cell viability (HepG2 [9]; 1000 nM)	cell viability (HepG2 [9]; 10000 nM)	drug sensitivity score (U2OS [10])	drug sensitivity score (Vero E6 [11])	relative viability EC50 (U2OS [12])	cell viability (U2OS [13]; 1 nM)	cell viability (U2OS [13]; 10 nM)	cell viability (U2OS [13]; 100 nM)	cell viability (U2OS [13]; 1000 nM)	cell viability (U2OS [13]; 10000 nM)	cell viability (Vero E6 [14]; 1 nM)	cell viability (Vero E6 [14]; 10 nM)	cell viability (Vero E6 [14]; 100 nM)	cell viability (Vero E6 [14]; 1000 nM)	cell viability (Vero E6 [14]; 10000 nM)	relative viability EC50 (Vero E6 [15])
OCCn1cc(-c2ccc3c(c2)CC/C3=N\O)c(-c2ccncc2)n1 [GDC-0879]	0	0	7	> 10000 nM	> 10000 nM	1450 nM	98.8%	89.4%	94.1%	101%	104%	102%	94.5%	95.2%	107%	104%	90.6%	100%	87.2%	74.3%	25%	–	–	–	–	–	–	–	–	–	–	–	–	–	–
C#Cc1cccc(Nc2ncnc3cc(OCCOC)c(OCCO)cc23)c1 [OSI-420]	2.3	13.1	0.6	> 10000 nM	101 nM	> 10000 nM	106%	101%	101%	86.9%	76.6%	115%	103%	73.8%	48.6%	47%	110%	102%	100%	104%	76.7%	0.3	4	> 10000 nM	96.7%	99.8%	97.6%	94.2%	85.1%	103%	105%	98.2%	79%	65.1%	–
Cc1ncc(C)n2nc([C@@H]3C[C@H]3c3nc4c5cccnc5ccn4c3C)nc12 [PDE10-IN-1]	–	0	0	–	> 10000 nM	> 10000 nM	–	–	–	–	–	106%	98%	105%	114%	117%	98.7%	105%	96.1%	115%	98.1%	0	0	> 10000 nM	98.6%	95.5%	100%	95.9%	97.9%	93.5%	98.2%	99.6%	99.3%	105%	> 10000 nM
Cn1c(Nc2ccc(C(F)(F)F)cc2)nc2cc(Oc3ccnc(-c4ncc(C(F)(F)F)[nH]4)c3)ccc21 [RAF265]	8.8	5.6	13.1	721 nM	–	435 nM	100%	98.3%	81.8%	66.3%	28.8%	98%	91.2%	94%	70.9%	62.2%	92.1%	94.7%	80%	44.5%	13.2%	4.9	5.4	1590 nM	94.9%	102%	95.3%	87.3%	46.5%	102%	99.7%	99.8%	77.9%	51.6%	–
CC(C)(O)CC(=O)NCCn1ccc2ncnc(Nc3ccc(Oc4cccc(C(F)(F)F)c4)c(Cl)c3)c21 [TAK-285]	2.9	12.6	0.3	–	228 nM	> 10000 nM	103%	90.9%	92.8%	85%	70%	109%	93.7%	76.1%	48.2%	31%	106%	110%	113%	105%	81.1%	1	5.9	> 10000 nM	99.1%	96.2%	95%	95.9%	80.2%	95.7%	92.8%	92.6%	78.2%	37.8%	1410 nM
Cn1c(=O)c(F)c(Nc2ccc(I)cc2F)c2c(=O)n(C[C@@H](O)CO)cnc21 [TAK-733]	11.2	21.1	33.3	–	32.3 nM	4.7 nM	89.4%	84.6%	70.7%	66.4%	58.7%	88.5%	74.4%	53.3%	31.8%	24.6%	88.1%	41.2%	24.8%	19.5%	17.2%	13.8	15.2	435 nM	94.5%	98.7%	85.9%	36%	10.8%	96.9%	82.9%	62.3%	51.6%	42.2%	42 nM
O=C(Nc1cc(Oc2cc(F)c(NC(=O)C3(C(=O)Nc4ccc(F)cc4)CC3)cc2F)ccn1)C1CC1 [altiratinib]	0	0	12.6	> 10000 nM	> 10000 nM	250 nM	113%	106%	104%	101%	99.3%	98.5%	110%	97.1%	109%	95.5%	107%	103%	94.7%	35.8%	58.5%	–	–	–	–	–	–	–	–	–	–	–	–	–	–
COC(=O)C1=C(C)NC(C)=C(C(=O)OC2CCCN(Cc3ccccc3)C2)C1c1cccc([N+](=O)[O-])c1 (centres undefined) [benidipine]	2.1	0.6	0.4	–	> 10000 nM	> 10000 nM	97.7%	108%	101%	97%	64.4%	99%	98.8%	106%	102%	77.8%	109%	101%	105%	105%	80.2%	0.5	0	> 10000 nM	100%	102%	93.8%	99.6%	81.7%	102%	101%	106%	99%	104%	> 10000 nM
Cc1ccc2c(Br)cc(Br)c(OC(=O)c3ccccc3)c2n1 [broxaldine]	4.9	2	5.4	2440 nM	–	2530 nM	84.9%	100%	84.9%	93.8%	29.2%	103%	99.8%	87.6%	97.4%	66.5%	111%	95.5%	116%	93.7%	19.6%	4.3	2.5	2140 nM	98.2%	102%	98%	92.7%	42.4%	109%	108%	109%	98.3%	54.8%	–
Cc1cc(C2CCCCC2)n(O)c(=O)c1 [ciclopirox]	6.1	3.6	6.3	1310 nM	2520 nM	1760 nM	99.9%	90.1%	96%	77%	38.7%	108%	109%	94.3%	95.7%	44.8%	91.8%	96.4%	95.9%	85.9%	27.2%	4.4	2.7	–	105%	95.2%	101%	87.9%	52.1%	94.6%	100%	90.1%	89.6%	63.4%	–
N#CCNC(=O)c1ccc(-c2ccnc(Nc3ccc(N4CCOCC4)cc3)n2)cc1 [cyt387]	1.6	–	6.2	–	–	2020 nM	99.5%	103%	101%	103%	61.8%	–	–	–	–	–	109%	105%	101%	88.7%	21.6%	4.1	3.4	2600 nM	99.9%	107%	99.4%	95.6%	36.6%	102%	100%	96.6%	94.7%	52.5%	–
CCN(CC)S(=O)(=O)c1ccc(C(=O)O)cc1 [etebenecid]	0	0	0	> 10000 nM	> 10000 nM	> 10000 nM	99.7%	110%	107%	92.5%	108%	110%	93.9%	106%	95.2%	111%	109%	110%	98.4%	112%	101%	–	–	–	–	–	–	–	–	–	–	–	–	–	–
CCc1nc(C(N)=O)c(Nc2ccc(N3CCC(N4CCN(C)CC4)CC3)c(OC)c2)nc1NC1CCOCC1 [gilteritinib]	3.9	3	7	–	–	1360 nM	110%	98.1%	102%	90.2%	54.4%	96.4%	95.8%	96.3%	94.1%	59.8%	99.2%	92.1%	92.4%	73.5%	27.9%	4.1	3.3	2120 nM	105%	102%	99.1%	93.1%	46%	106%	103%	100%	101%	37.2%	3250 nM
Cc1ccccc1C(=O)Nc1ccc(C(=O)N2CCCC(N(C)C)c3ccccc32)cc1 (centres undefined) [mozavaptan]	4.7	1.4	3.1	–	–	3100 nM	97%	99.8%	88.8%	76.6%	70.2%	94.9%	109%	95.6%	105%	64.9%	98.2%	99.5%	93.3%	99.5%	44.3%	3	2.7	2870 nM	98.1%	102%	94.5%	98%	48.8%	100%	103%	98.3%	98.4%	51.6%	–
C[C@](O)(COc1ccc(C#N)cc1)C(=O)Nc1ccc(C#N)c(C(F)(F)F)c1 [ostarine]	–	0	0	–	> 10000 nM	> 10000 nM	–	–	–	–	–	109%	98.9%	99.4%	95.9%	97.9%	107%	107%	103%	109%	92.8%	–	–	–	–	–	–	–	–	–	–	–	–	–	–
CCCCCCCC/C=C/C(=O)O [trans-2-undecenoic-acid]	0	0	0	> 10000 nM	> 10000 nM	> 10000 nM	109%	105%	108%	93.5%	98.9%	104%	95.1%	96.4%	104%	108%	106%	104%	101%	105%	95.8%	0	–	> 10000 nM	101%	97%	102%	100%	99.5%	–	–	–	–	–	–
